Literature values in patent US10155776B2, “Method for selective detection and estimation of histidine and cystein” (Council of Scientific and Industrial Research, priority 2014, dated 2018).

pKa value of the thiol group in the side chain | Compound
9.20 | N[C@@H](CCC(=O)N[C@@H](CS)C(=O)NCC(=O)O)C(=O)O [glutathione]
8.87 | N[C@@H](CCS)C(=O)O [homocysteine]
